Measured values from ChEMBL document CHEMBL3886577, “N-((6-amino-pyridin-3-yl)methyl)-heteroaryl-carboxamides” (2016).

Biological target: Plasma kallikrein (Homo sapiens, UniProt P03952)
Assay: (§1) In-vitro Plasma Kallikrein Inhibition: Enzymatic reactions were conducted in ⿿assay buffer⿿, comprising 50 mM Hepes/NaOH at pH 7.8, 150 mM NaCl, 1 mM EDTA and 0.05% (w/v) CHAPS. For the determination of IC50 values, the assays were performed at room temperature in 384-well plates with a total assay volume of 25.25 ul per well. The test compound was dissolved in 90% (v/v) DMSO/water. For the assays, 250 nL of the 90% (v/v) DMSO/water solution or compound solution were added per well, followed by the addition of 12.5 ul protease solution (protease in assay buffer). The final assay concentration of the human plasma kallikrein was nominally 25 pM, the 11 compound concentrations in the dilution series were in the range form 1 nM to 100 uM. After 1 hour of pre-incubation at room temperature, the reactions were started by the addition of 12.5 ul substrate solution (in assay buffer, final assay concentration was 0.5 uM). After the addition of the substrate solution, the final DMSO concentration in the assay was 0.9% (v/v).
Assay type: cell-free

Plasma kallikrein, sequence (P03952 20-390 limits assumed): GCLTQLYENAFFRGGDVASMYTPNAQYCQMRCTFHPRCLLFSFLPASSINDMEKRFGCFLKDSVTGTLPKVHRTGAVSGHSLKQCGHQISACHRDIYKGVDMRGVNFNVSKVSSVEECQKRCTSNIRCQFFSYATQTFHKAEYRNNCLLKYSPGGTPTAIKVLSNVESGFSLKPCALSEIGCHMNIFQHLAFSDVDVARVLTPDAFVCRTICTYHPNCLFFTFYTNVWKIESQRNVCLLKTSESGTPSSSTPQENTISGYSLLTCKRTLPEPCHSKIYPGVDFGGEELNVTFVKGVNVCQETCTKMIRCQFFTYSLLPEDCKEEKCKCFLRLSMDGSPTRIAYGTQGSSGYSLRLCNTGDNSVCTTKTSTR
Plasma kallikrein, sequence (P03952 391-638 limits assumed): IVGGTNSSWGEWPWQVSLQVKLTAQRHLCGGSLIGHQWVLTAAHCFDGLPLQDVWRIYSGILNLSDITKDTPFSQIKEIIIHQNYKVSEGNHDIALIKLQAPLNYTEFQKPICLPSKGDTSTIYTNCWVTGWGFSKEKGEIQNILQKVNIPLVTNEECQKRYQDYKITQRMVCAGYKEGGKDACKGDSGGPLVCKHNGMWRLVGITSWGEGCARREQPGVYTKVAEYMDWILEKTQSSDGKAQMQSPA

For Cc1cc(N)nc(C)c1CNC(=O)c1nnn(Cc2ccccc2)c1C, which IC50 is on record?
Its IC50 is 52100 nM.

Which IC50 does the source give for Cc1cc(N)nc(C)c1CNC(=O)c1cn(Cc2ccc(-c3ccccc3)cc2)nn1 here?
Its IC50 is 30 nM.

Which IC50 does the source give for CNC(=O)COc1cc(N)nc(C)c1CNC(=O)c1cnn(Cc2ccccc2)c1 here?
The IC50 was 70 nM.

With Cc1cc(N)nc(C)c1CNC(=O)c1cnn(Cc2ccc(CO)cc2)c1 as the molecule, how does the IC50 read?
The IC50 was 150 nM.

Which IC50 does the source give for Cc1cc(N)nc(C)c1CNC(=O)c1nc(Cc2ccccc2)n(C)n1 here?
The IC50 was 7670 nM.

With COc1ccc2cc(Cn3cc(C(=O)NCc4c(C)cc(N)nc4C)cn3)ccc2c1 as the molecule, how does the IC50 read?
The IC50 was 5 nM.

For Cc1cc(N)nc(C)c1CNC(=O)c1cc(C)n(Cc2ccco2)c1C, which IC50 is on record?
Its IC50 is 739 nM.

With COc1cc(Cn2cc(C(=O)NCc3c(C)cc(N)nc3C)cn2)ccc1Cn1cccn1 as the molecule, how does the IC50 read?
The IC50 was 0.0912 nM.

Tested on: not listed separately
Assay: as §1

With Cc1nc(N)cc(OCC(=O)C(C)(C)C)c1CNC(=O)c1cn(Cc2ccccc2)nn1 as the molecule, how does the IC50 read?
Its IC50 is 24 nM.
